Assay results: patent US5679638A, “Method for treating a tumor with a chemotherapeutic agent” (Biopure Corporation, priority 1993, dated 1997)
Values joined by “and” are separate entries in the source; they are usually repeats but may differ in a detail not shown here. Equal entries are not always repeated.

Experiments:
FSaIIC fibrosarcoma = FSaIIC fibrosarcoma tumor growth delay; type: in vivo, mouse (male C3H/FeJ mice); conditions: for Tumor growth delay, UPHS/Air: UPHS 0.3 ml (12 ml/kg) i.v. immediately before drug; for Tumor growth delay, UPHS/Air / Tumor growth delay, alkylating agent (alone): air breathing; for Increase in tumor growth delay by addition of UPHS: UPHS + drug (air) vs drug alone; for Effect of carbogen breathing on tumor growth delay produced by drug / Tumor growth delay, Carbogen: no UPHS; for Effect of carbogen breathing on tumor growth delay produced by drug: vs drug with air; for Tumor growth delay, Carbogen: drug + carbogen breathing 6 hours; for Tumor growth delay, alkylating agent (alone): drug alone i.p.
Description: The FsaII fibrosarcoma (FSaIIC), adapted for growth in culture, was employed. See Rice, L. et al., "The Radiosensitivity of a Murine Fibrosarcoma as Measured by Three Cell Survival Assays", Br. J. Cancer 41:240-245 (1980). 2×10^6 FSaIIC cells, prepared from a brei of several stock tumors, were implanted intramuscularly into the legs of 8- to 10-week old male C3H/FeJ mice (The Jackson Laboratory, Bar Harbor, Me.). When the tumors were approximately 100 mm^3 in volume, 0.3 ml (12 ml/kg; 1.32 gm protein/kg) of UPHS was injected via the tail vein. The UPHS solution was obtained from Biopure Corporation, Boston, Mass. and was a polymerized form of a highly purified bovine hemoglobin solution. It contained 11±2 gm/deciliter of bovine hemoglobin. […] It contained sodium (145 mM/L), chloride (140 mM/L) and potassium (4.0 mM/L) in a buffer solution (pH 7.8±0.4). […] DeVenuto, F., "Evaluation of Human and Bovine Modified-Hemoglobin Solution as Oxygen-Carrying Fluid for Blood Volume Replacement", Biomat. Art. Cells, Art. Org. 16:77-82 (1988); and Winslow, R. M., "Optimal Hematologic Variables for Oxygen Transport Including p50, Hemoglobin Cooperativity, Hematocrit, Acid-Base Atatus, and Cardiac Function", Biomat., Art. Cells and Art. Organs 16:149-172 (1988).
CTX and PAM were purchased as pure powders from Sigma Chemical Company, St. Louis, Miss. […] BCNU (Carmustine) was purchased from the Dana-Farber Cancer Institute Pharmacy.
The mice were allowed to breathe air or were placed in a circulating atmosphere of 95% O2 /5% CO2 (carbogen) for six hours and then removed to air. The progress of each tumor was measured three times weekly until it reached a volume of 500 mm^3. Tumor growth delay was calculated as the days taken by each individual tumor to reach 500 mm^3 compared to the untreated controls. […] Days of tumor growth Relay are the mean ±SE for the treatment group compared to the control.
Statistical comparisons were made with Dunn Multiple Comparisons Test.
The procedures and materials of Example I were employed except that Fluosol-DA was substituted for UPHS. Fluosol-DA was obtained from Alpha Therapeutics Corporation and is an emulsion consisting of […] (w/v) of the following perfluorocarbons: 7 parts perfluorodecalin, 3 parts per perfluorotripropyliamine; Pluronic F-68 (2.7%, w/v); yolk phospholipids (0.4% w/v) as emulsifiers; and glycerol (0.8%, w/v) as a cryoprotective agent. The annex solution (electrolyte/bicarbonate solution) furnished the preparation with physiological osmolarity.
The specific procedures employing Fluosol-DA have been described previously. See Teicher, B. A. et al., "Approaches to Defining the Mechanism of Fluosol-DA 20%/Carbogen Enhancement of Melphalan Antitumor Activity", Cancer Res. 47:513-518 (1987); Teicher, B. A. et al., "Differential Enhancement of Melphalan Cytotoxicity in Tumor and Normal t+Tissue by Fluosol-DA and Oxygen Breathing", Int. J. Cancer 36:585-589 (1985); and Teicher, B. A. et al., "Effects of Various Oxygenation Conditions on the Enhancement by Fluosol-DA of Melphalan Antitumor Activity", Cancer Res. 47:5036-5041 (1987).

[1] = system: subcutaneous 9L gliosarcoma; experiment: Subcutaneous 9L gliosarcoma tumor growth delay; type: in vivo, rat (male Fischer 344); conditions: for Subcutaneous 9L Tumor Growth Delay, Mean Days: Table III, days to 500 mm^3 vs control (19.5 ± 0.5 days), CDDP 8 mg/kg day 7, BCNU 3 x 15, CTX or IFOS 3 x 100 mg/kg, UPHS 8 ml/kg; for Increase in tumor growth delay by prior administration of UPHS: UPHS + drug vs drug alone; for Effectiveness against subcutaneous 9L tumors: relative statement among BCNU, CTX, CDDP, IFOS
Description: The 9L gliosarcoma (9L) cells were obtained as a gift of 9L/SF gliosarcoma cells from Dr. Dennis Dean, University of California, San Francisco. These cells were maintained in culture in .varies.-MEM (Grand Island Biological Co., Grand Island, N.Y.) and supplemented with 10% fetal bovine serum (Sterile Systems, Inc., Logan, Utah) and with antibiotics. The 9L cells (4×10^4) in 10 μL of media without serum were implanted intracranially in male Fischer 344 rats (Taconic Farms, Germantown, N.Y.) weighing 200-250 gm on day 0. Each rat was anesthetized with sodium pentobarbital. A midline scalp incision was made and a hole was bored through the skull with 23 gauge needle at a point 2 mm lateral to the midline. The cell suspension was injected into the right frontal lobe at a depth of 3 mm from the dural surface. The needle was removed and the hole filled with dental cement. The scalp was sealed with a surgical clip. Two days later 9L cells (2×10^6) were implanted subcutaneously into the flank of each animal. When the tumors were approximately 100 mm^3 in volume, 7 days after tumor cell implantation, 8 ml/kg of UPHS was injected via the tail vein. After injecting the UPHS, administration of chemotherapeutic agents was initiated. […] BCNU therapy consisted of three 15 mg/kg BCNU doses administered by intraperitoneal injection days 7, 9 and 11. CTX and ifosfamide (IFOS) therapy consisted of three 100 mg/kg CTX or IFOS doses administered by intraperitoneal injection on days 7, 9 and 11. For the BCNU, CTX and IFOS therapies, UPHS was intravenously administered prior to each chemotherapeutic agent injection on days 7, 9 and 11. The IFOS was purchased from the Dana-Farber Cancer Institute. Survival of animals was monitored daily. Animals that were moribund or unable to reach food or water were killed by CO2 inhalation.
The progress of each subcutaneous tumor was measured 3 times/week until it reached a volume of 500 mm^3. Tumor growth delay was calculated as the number of days for each individual tumor to reach 500 mm^3 compared with untreated controls. Each treatment group had 4 animals and the experiment was repeated twice. Days of tumor growth delay are the mean ±SE for the treatment group compared with the control.

[2] = PAM 10, CTX 150, CDDP 10, BCNU 15 mg/kg
[3] = UPHS + carbogen 6 h + drug vs drug alone

O=NN(CCCl)C(=O)NCCCl [BCNU, N,N-bis(2-chloroethyl)-N-nitrosourea]
Tumor growth delay, UPHS/Air (FSaIIC fibrosarcoma; [2]): 3.8 ± 0.5 days | Increase in tumor growth delay by addition of UPHS (FSaIIC fibrosarcoma): 1.5 fold | Effect of carbogen breathing on tumor growth delay produced by drug (FSaIIC fibrosarcoma; carbogen 6 hours): increased the tumor growth delay produced by BCNU to a small degree | Tumor growth delay, Carbogen (FSaIIC fibrosarcoma; [2]): 3.3 ± 0.3 days | Tumor growth delay, alkylating agent (alone) (FSaIIC fibrosarcoma; [2]): 2.5 ± 0.3 days and 2.5 days | Increase in tumor growth delay by combination of UPHS and carbogen (FSaIIC fibrosarcoma; mouse, in vivo): 2.3 fold | Subcutaneous 9L Tumor Growth Delay, Mean Days [1]: 5.8 ± 0.5 days | Increase in tumor growth delay by prior administration of UPHS [1]: 1.3 fold | Effectiveness against subcutaneous 9L tumors [1]: least effective against subcutaneously growing 9L tumors

N.N.[Cl][Pt][Cl] [CDDP, cis-diaminodichloroplatinum(II)]
Tumor growth delay, UPHS/Air (FSaIIC fibrosarcoma; [2]): 9.6 ± 1.1 days | Tumor growth delay, UPHS/Carbogen (FSaIIC fibrosarcoma; UPHS 12 ml/kg i.v. + drug + carbogen breathing 6 hours, PAM 10, CTX 150, CDDP 10, BCNU 15 mg/kg): 14.1 ± 1.6 days and 14.1 days | Increase in tumor growth delay by combination of UPHS and carbogen (FSaIIC fibrosarcoma; [3]): 1.9 fold | Increase in tumor growth delay by addition of UPHS (FSaIIC fibrosarcoma): 1.3 fold | Effect of carbogen breathing on tumor growth delay produced by drug (FSaIIC fibrosarcoma; carbogen 6 hours): no significant effect on the tumor growth delay | Tumor growth delay, Carbogen (FSaIIC fibrosarcoma; [2]): 7.6 ± 0.3 days | Tumor growth delay, alkylating agent (alone) (FSaIIC fibrosarcoma; [2]): 7.4 ± 0.8 days and 7.4 days | Subcutaneous 9L Tumor Growth Delay, Mean Days [1]: 9.4 ± 0.8 days | Effect of UPHS on tumor growth delay produced by drug ([1]; UPHS prior to single dose of CDDP): no substantial effect on the tumor growth delay | Effectiveness against subcutaneous 9L tumors [1]: very effective against both subcutaneous and intracranial 9L tumors

O=P1(N(CCCl)CCCl)NCCCO1 (stereo not drawn) [CTX, Cyclophosphamide]
Tumor growth delay, with Fluosol-DA and carbogen (FSaIIC fibrosarcoma; CTX 150 mg/kg + Fluosol-DA, carbogen 6 hours): about 12 days | Tumor growth delay, UPHS/Air (FSaIIC fibrosarcoma; [2]): 7.4 days and 7.4 ± 0.7 days | Increase in tumor growth delay by combination of UPHS and carbogen (FSaIIC fibrosarcoma; [3]): 4.6 fold | Increase in tumor growth delay by addition of UPHS (FSaIIC fibrosarcoma): 2.1 fold | Effect of carbogen breathing on tumor growth delay produced by drug (FSaIIC fibrosarcoma; carbogen 6 hours): small increase in the tumor growth delay | Tumor growth delay, Carbogen (FSaIIC fibrosarcoma; [2]): 5.0 ± 0.5 days | Subcutaneous 9L Tumor Growth Delay, Mean Days [1]: 9.1 ± 0.7 days | Increase in tumor growth delay by prior administration of UPHS [1]: 1.5 fold | Effectiveness against subcutaneous 9L tumors [1]: very effective treatments for subcutaneously growing 9L tumors

N[C@@H](Cc1ccc(N(CCCl)CCCl)cc1)C(=O)O [PAM, Melphalan]
Tumor growth delay, with Fluosol-DA and air breathing (FSaIIC fibrosarcoma; PAM 10 mg/kg + Fluosol-DA, air): about 6.5 days | Increase in tumor growth delay by combination of UPHS and carbogen (FSaIIC fibrosarcoma; [3]): 3.6 fold | Increase in tumor growth delay by addition of UPHS (FSaIIC fibrosarcoma): 2.2 fold | Effect of carbogen breathing on tumor growth delay produced by drug (FSaIIC fibrosarcoma; carbogen 6 hours): small increase in tumor growth delay | Tumor growth delay, Carbogen (FSaIIC fibrosarcoma; [2]): 4.0 ± 0.6 days
